Laboratory results: patent US20240124436A1 (priority 2019, published 2024)
Read-outs that look alike come from different tables or passages of the source.

System: pathogens of rice blast
Type: cell-based
Conditions: 25° C., 6 days, elongation length of hyphae

In the case of `COc1nc(-c2nccs2)nc(F)c1C(F)(F)F` [Example 3, 6-fluoro-4-methoxy-2-(2-thiazolyl)-5-(trifluoromethyl)pyrimidine], the Control value (test solution 1000 ppm, 1,000 μl on oatmeal culture medium) was 68 and the Control value (test solution 2000 ppm, 1,000 μl on oatmeal culture medium) was 100.
